# Results taken from patent US12377171B2, “Methods for treating and diagnosing blinding eye diseases” (Translatum Medicus Inc., priority 2012, dated 2025).
# “Also recorded” adds a separate entry of the source.
# Test system: circulating macrophage/monocyte population
# Assay: Monocyte/macrophage depletion with gadolinium chloride in the NaIO3 model
# Type: in vivo, rat
# Text: To determine the identity of the autofluorescent cells that coincide with the reticular pattern of FAF, excised retina were stained for with markers of the innate immune system, avoiding the 488 nm channel. Iba1 is a pan-microglial/macrophage marker and in the rat retina; antibodies against it identify the major phagocytic cell populations. […] Further, when compared against photoreceptor nuclear staining, this curvilinear pattern is seen to lie interposed between folds of the deformed ONL. This pattern of Iba1^+ cells corresponds with the pattern of hyperfluorescence observed in vivo by FAF imaging, and with the pattern of autofluorescent cells in excised retina. […] Importantly, at 7 days after NaIO3, all RPE cells are absent from the posterior eye cup, confirming that these cells cannot be responsible for the observed FAF. Also, identification of the autofluorescent cells as phagocytic was confirmed by comparison of imaging to preparations in which monocyte/macrophage depletion has been undertaken. Such depletion was achieved by treatment with gadolinium chloride (GAD). […]
smiles,measurement,setting,value
"[Cl][Gd]([Cl])[Cl] [GAD, gadolinium chloride]",area of damage,7 days after NaIO3 and simultaneous GAD depletion,smaller areas of damage
same,FAF pattern of NaIO3-induced outer retinal damage,"GAD-treated vs untreated, after NaIO3",far less well defined reticular patterns of FAF; also recorded: profound alteration of the NaIO3-induced pattern of FAF and DNIRA; also recorded: less well-demarcated borders
